{
  "source": "patent US7635711B2",
  "about": "“Glucocorticoid mimetics, methods of making them, pharmaceutical compositions, and uses thereof” (Boehringer-Ingelheim Pharmaceuticals, Inc., priority 2004, dated 2009)",
  "data": [
    {"system": "not given", "test": "not given", "conditions": "not given", "units": {"melting point": "°C"}, "values": [
      {"smiles": "O=S(=O)(NC(Cc1c[nH]c2ccccc12)C(F)(F)F)c1ccccc1", "note": "(stereo not shown)", "melting point": "121 to 123"}
    ]},
    {"system": "glucocorticoid receptor", "test": "one or more of the above assays (GR binding and GR cell assays for agonist/antagonist activity)", "format": "cell-based", "conditions": "in one or more of the above assays", "excerpt": "Compounds found to bind to the glucocorticoid receptor may be evaluated for dissociation of transactivation and transrepression by assays cited in the Background of the Invention (C. M. Bamberger and H. M. Schulte, Eur. J. Clin. Invest., 2000, 30 (suppl. 3) 6-9) or by the assays described below.\nB. Glucocorticoid Receptor Cell Assays\n1. Induction of Aromatase in Fibroblasts (Cell Assay for Transactivation)\nDexamethasone, a synthetic ligand to the glucocorticoid receptor (GR), induces expression of aromatase in human foreskin fibroblast cells. The activity of aromatase is measured by the conversion of testosterone to estradiol in culture media.\nHuman foreskin fibroblast cells (ATCC Cat. No. CRL-2429, designation CCD112SK) are plated on 96 well plates at 50,000 cells per well 5 days before use, in Iscove's Modified Dulbecco's Media (GibcoBRL Life Technologies Cat No. 12440-053) supplemented with 10% charcoal filtered FBS (Clonetech Cat No. SH30068) and Gentamycin (GibcoBRL Life Technologies Cat. No. 15710-064). On the day of the experiment, the media in the wells is replaced with fresh media. Cells are treated with test compounds to final concentrations of 10^−5 M to 10^−8 M, and testosterone to a final concentration of 300 ng/mL. Each well has a total volume of 100 μL. Samples are made in duplicates. Control wells include: (a) wells that receive testosterone only, and (b) wells that receive testosterone plus 2 μM of dexamethasone to provide maximum induction of aromatase. Plates are incubated at 37° C. overnight (15 to 18 hours), and supernatants are harvested at the end of incubation. Estradiol in the supernatant is measured using ELISA kits for estradiol (made by ALPCO, obtained from American Laboratory Products Cat. No. 020-DR-2693) according to the manufacture's instruction. The amount of estradiol is inversely proportional to the ELISA signals in each well. The extent of aromatase induction by test compounds is expressed as a relative percentage to dexamethasone. EC50 values of test compounds are derived by non-linear curve fitting.\n2. Inhibition of IL-6 Production in Fibroblasts (Cell Assay for Transrepression)\nHuman foreskin fibroblast cells produce IL-6 in response to stimulation by pro-inflammatory cytokine IL-1.\nHuman foreskin fibroblast cells (ATCC Cat. No. CRL-2429) are plated on 96 well plates at 5,000 cells per well the day before use, in Iscove's Modified Dulbecco's Media (GibcoBRL Life Technologies Cat. No. 12440-053) supplemented with 10% charcoal filtered FBS (Clonetech Cat. No. SH30068) and Gentamycin (GibcoBRL Life Technologies Cat. No. 15710-064). On the next day, media in the wells is replaced with fresh media. Cells are treated with IL-1 (rhIL-1α, R&D Systems Cat. No. 200-LA) to a final concentration of 1 ng/mL, and with test compounds to final concentrations of 10^−5 M to 10^−8 M, in a total volume of 200 μL per well. Samples are done in duplicates. […] Positive control wells receive IL-1 only and represent maximum (or 100%) amount of IL-6 production. Plates are incubated at 37° C. overnight (15 to 18 hours), and supernatants are harvested at the end of incubation. IL-6 levels in the supernatants are determined by the ELISA kits for IL-6 (MedSystems Diagnostics GmbH, Vienna, Austria, Cat. No. BMS213TEN) according to manufacture's instructions. The extent of inhibition of IL-6 by test compounds is expressed in percentage relative to positive controls. IC50 values of test compounds are derived by non-linear curve fitting.\nEvaluation of agonist or antagonist activity of compounds binding to the glucocorticoid receptor may be determined by any of the assays.\n3. Modulation of Tyrosine Aminotransferase (TAT) Induction in Rat Hepatoma Cells\nTesting of compounds for agonist or antagonist activity in induction of tyrosine aminotransferase (TAT) in rat hepatoma cells. […]", "values": [
      {"smiles": "Cc1cc(C)c(S(=O)(=O)NC(Cc2c[nH]c3cccc(F)c23)C(F)(F)F)c(C)c1", "note": "(stereo not shown) [2,4,6-Trimethyl-N-[2,2,2-trifluoro-1-(4-fluoro-1H-indol-3-ylmethyl)ethyl]benzenesulfonamide]", "activity as an agonist of the glucocorticoid receptor function": "activity as an agonist"},
      {"smiles": "Cc1cc(C)c(S(=O)(=O)NC(Cc2c[nH]c3c(F)cccc23)C(F)(F)F)c(C)c1", "note": "(stereo not shown) [2,4,6-Trimethyl-N-[2,2,2-trifluoro-1-(7-fluoro-1H-indol-3-ylmethyl)ethyl]benzenesulfonamide]", "activity as an agonist of the glucocorticoid receptor function": "activity as an agonist"},
      {"smiles": "Cc1cc(C)c(S(=O)(=O)NC(Cn2cc(C)c3ccccc32)C(F)(F)F)c(C)c1", "note": "(stereo not shown) [2,4,6-Trimethyl-N-[2,2,2-trifluoro-1-(3-methylindol-1-ylmethyl)ethyl]benzenesulfonamide]", "activity as an agonist of the glucocorticoid receptor function": "activity as an agonist"},
      {"smiles": "Cc1cc(C)c(S(=O)(=O)NC(Cc2c[nH]c3ccccc23)C(F)(F)F)c(C)c1", "note": "(stereo not shown) [2,4,6-Trimethyl-N-[2,2,2-trifluoro-1-(1H-indol-3-ylmethyl)ethyl]benzenesulfonamide]", "activity as an agonist of the glucocorticoid receptor function": "activity as an agonist"},
      {"smiles": "Cc1cc(C)c(S(=O)(=O)NC(Cc2c[nH]c3ccc(C)cc23)C(F)(F)F)c(C)c1", "note": "(stereo not shown) [2,4,6-Trimethyl-N-[2,2,2-trifluoro-1-(5-methyl-1H-indol-3-ylmethyl)ethyl]benzenesulfonamide]", "activity as an agonist of the glucocorticoid receptor function": "activity as an agonist"},
      {"smiles": "Cc1cc(C)c(S(=O)(=O)NC(Cc2c[nH]c3ccccc23)C(F)(F)F)c(N)c1", "note": "(stereo not shown) [2-Amino-4,6-dimethyl-N-[2,2,2-trifluoro-1-(1H-indol-3-ylmethyl)ethyl]benzenesulfonamide]", "activity as an agonist of the glucocorticoid receptor function": "activity as an agonist"},
      {"smiles": "Cc1cc(C)c(S(=O)(=O)NC(Cc2c[nH]c3cc(F)ccc23)C(F)(F)F)c(C)c1", "note": "(stereo not shown) [2,4,6-Trimethyl-N-[2,2,2-trifluoro-1-(6-fluoro-1H-indol-3-ylmethyl)ethyl]benzenesulfonamide]", "activity as an agonist of the glucocorticoid receptor function": "activity as an agonist"},
      {"smiles": "Cc1ccc2[nH]cc(CC(NS(=O)(=O)c3c(N)cc(Cl)cc3Cl)C(F)(F)F)c2c1", "note": "(stereo not shown) [2-Amino-4,6-dichloro-N-[2,2,2-trifluoro-1-(5-methyl-1H-indol-3-ylmethyl)ethyl]benzenesulfonamide]", "activity as an agonist of the glucocorticoid receptor function": "activity as an agonist"},
      {"smiles": "Cc1cc(C)c(S(=O)(=O)NC(Cc2c[nH]c3ccc(F)cc23)C(F)(F)F)c(C)c1", "note": "(stereo not shown) [2,4,6-Trimethyl-N-[2,2,2-trifluoro-1-(5-fluoro-1H-indol-3-ylmethyl)ethyl]benzenesulfonamide]", "activity as an agonist of the glucocorticoid receptor function": "activity as an agonist"},
      {"smiles": "Cc1cc(C)c(S(=O)(=O)NC(Cc2c[nH]c3c(C#N)cccc23)C(F)(F)F)c(C)c1", "note": "(stereo not shown) [N-[1-(7-Cyano-1H-indol-3-ylmethyl)-2,2,2-trifluoroethyl]-2,4,6-trimethylbenzenesulfonamide]", "activity as an agonist of the glucocorticoid receptor function": "activity as an agonist"},
      {"smiles": "Cc1cc(C)c(S(=O)(=O)NC(Cc2c[nH]c3c(C#N)cc(C)cc23)C(F)(F)F)c(C)c1", "note": "(stereo not shown) [N-[1-(7-Cyano-5-methyl-1H-indol-3-ylmethyl)-2,2,2-trifluoroethyl]-2,4,6-trimethylbenzenesulfonamide]", "activity as an agonist of the glucocorticoid receptor function": "activity as an agonist"},
      {"smiles": "Nc1cc(Cl)cc(Cl)c1S(=O)(=O)NC(Cc1c[nH]c2ccccc12)C(F)(F)F", "note": "(stereo not shown) [2-Amino-4,6-dichloro-N-[2,2,2-trifluoro-1-(1H-indol-3-ylmethyl)ethyl]benzenesulfonamide]", "activity as an agonist of the glucocorticoid receptor function": "activity as an agonist"}
    ]}
  ]
}
